The values below come from ChEMBL document CHEMBL4052616, “Isoniazid derivatives and their anti-tubercular activity” (Eur J Med Chem, 2017).

≈ marks a conversion by molar mass, not a printed value.

Assay [1] has as its system Mycobacterium tuberculosis. Put plainly: Antimycobacterial activity against Mycobacterium tuberculosis clinical isolate 1889 by broth dilution method. Type of assay: functional.
Assay [2] has as its system Mycobacterium tuberculosis. Kind of assay: Potency index, ratio of isoniazid MIC to compound MIC for Mycobacterium tuberculosis clinical isolate 303. It counts as functional.
Assay [3] deals with Mycobacterium tuberculosis. Kind of assay: Antimycobacterial activity against Mycobacterium tuberculosis infected in C57BL/6 mouse assessed as reduction in colony forming units per lung at 100 mg/kg administered via gavage for 2 days measured last post dose. Type of assay: functional.
Assay [4] concerns Mycobacterium tuberculosis. Put plainly: Antimycobacterial activity against Mycobacterium tuberculosis Erdman ATCC 35801 by broth dilution method. It counts as functional.
The test system of assay [5] is Mycobacterium tuberculosis. Put plainly: Potency index, ratio of isoniazid MIC to compound MIC for Mycobacterium tuberculosis clinical isolate 1889. Type of assay: functional.
In assay [6] the test system is Mycobacterium tuberculosis. Put plainly: Potency index, ratio of isoniazid MIC to compound MIC for Mycobacterium tuberculosis clinical isolate 35829. It counts as functional.
For assay [7], the system named is Mycobacterium tuberculosis. Kind of assay: Antimycobacterial activity against Mycobacterium tuberculosis clinical isolate 303 by broth dilution method. Type of assay: functional. On the technique in general: Dilution methods test growth across graded concentrations, often in twofold steps.
Assay [8] relates to Mycobacterium tuberculosis. Put plainly: Antimycobacterial activity against Mycobacterium tuberculosis clinical isolate 35829 by broth dilution method. It counts as functional.
Assay [9] concerns Mycobacterium tuberculosis. Kind of assay: Antimycobacterial activity against Mycobacterium tuberculosis H37Rv ATCC 27294 measured after 5 to 8 days. It counts as functional.
The test system of assay [10] is Mycobacterium tuberculosis. Put plainly: Growth inhibition of Mycobacterium tuberculosis H37Rv ATCC 27294 measured after 5 to 8 days. Type of assay: functional.
Assay [11] concerns Mycobacterium tuberculosis. Kind of assay: Antimycobacterial activity against Mycobacterium tuberculosis H37Rv after 5 days by microplate alamar blue assay. Type of assay: functional. The settings on record: 120 h. On the technique in general: Alamar Blue is a resazurin reagent that responds to reducing activity.
For assay [12], the system named is Mycobacterium tuberculosis. Kind of assay: Antitubercular activity against Mycobacterium tuberculosis H37Rv. Type of assay: functional.
Assay [13] can be described thus: Inhibition of DNA gyrase (unknown origin).
In assay [14] the test system is Mycobacterium tuberculosis. Put plainly: Potency index, ratio of pyrazinamide MIC to compound MIC for Mycobacterium tuberculosis H37Rv. It counts as functional.
Assay [15] has as its system Mycobacterium tuberculosis. Put plainly: Antimycobacterial activity against Mycobacterium tuberculosis H37Rv by NCCLS method. Type of assay: functional.
Assay [16] concerns Mycobacterium tuberculosis. Kind of assay: Antitubercular activity against Mycobacterium tuberculosis H37Rv after 10 days by tube dilution method. It counts as functional. Particulars: 240 h.
The subject of assay [17] is Mycobacterium tuberculosis. Put plainly: Antimycobacterial activity against Mycobacterium tuberculosis H37Rv ATCC 27294 at < 0.1 ug/mL by microplate alamar blue assay. Type of assay: functional.
In assay [18] the test system is Mycobacterium tuberculosis. Put plainly: Antimycobacterial activity against Mycobacterium tuberculosis 331/88 after 14 to 21 days by micromethod. It counts as functional.
Another assay relates to Mycobacterium avium. Kind of assay: Antimycobacterial activity against Mycobacterium avium 330/88 measured after 14 to 21 days by micromethod. It counts as functional.
The subject of assay [19] is Mycobacterium tuberculosis. Kind of assay: Antimycobacterial activity against Mycobacterium tuberculosis H37Rv after 10 to 12 days by serial dilution method. It counts as functional.
The test system of assay [20] is Mycobacterium tuberculosis. Put plainly: Antimycobacterial activity against human sensitive Mycobacterium tuberculosis measured after six weeks. Type of assay: functional.
Assay [21] has as its system Mycobacterium tuberculosis. Put plainly: Antimycobacterial activity against Bovin sensitive Mycobacterium tuberculosis measured after six weeks. Type of assay: functional.

As a reminder, the MIC is the lowest concentration that inhibits growth of the organism. A high value points to a need for much substance. In the case of `Cc1ccc(C)n1NC(=O)c1ccccc1`, the MIC in assay [1] is 4 to 8 µg/mL (≈ 18.7 to 37.3 µM); in assay [4], 3.2 µg/mL (≈ 14.9 µM); in assay [7], 4 to 8 µg/mL (≈ 18.7 to 37.3 µM); in [8], 4 to 8 µg/mL (≈ 18.7 to 37.3 µM). Moreover, the Ratio in assay [2], in assay [5] and in assay [6] was 2 in each case. Further, the Activity in [3] was found to be 1.5 log10CFU.

In [9], `CCn1cc(C(=O)O)c(=O)c2cc(F)c(N3CCN(CN4C(=O)/C(=N\NC(=O)c5ccncc5)c5cc(Cl)ccc54)CC3)cc21` yielded an MIC of 6.25 to 12.5 µg/mL (≈ 9.89 to 19.8 µM). In assay [10], the “growth inhibition (GI)” value is 99%.

In [11], `O=C(NN1C(=O)C(Cl)C1c1ccccc1O)c1ccncc1` (centres undefined) registered an MIC of 0.62 µg/mL (≈ 1.95 µM).

Turning to `COc1cc(C2C(Cl)C(=O)N2NC(=O)c2ccncc2)ccc1O` (centres undefined), the MIC in [11] came to 0.31 µg/mL (≈ 0.891 µM). The compound `O=C(NN1C(=O)C(Cl)C1c1ccc([N+](=O)[O-])cc1)c1ccncc1` (centres undefined) displayed an MIC in [11] of 5 µg/mL (≈ 14.4 µM). With `O=C(NN1C(=O)C(Cl)C1c1cc2cc(Br)ccc2nc1Cl)c1ccncc1` (centres undefined), it took 12.5 µg/mL to inhibit growth in assay [12] (MIC). `C/C(=N\NC(=O)c1ccncc1)c1ccc(N)cc1` showed an MIC in [12] of 0.23 µM. By IC50 is commonly meant the concentration that inhibits the measured activity by half. Read a high IC50 as lower potency. The compound `COc1c(N2CCN(CN3C(=O)/C(=N\NC(=O)c4ccncc4)c4ccccc43)C(C)C2)c(F)cc2c(=O)c(C(=O)O)cn(C3CC3)c12` (centres undefined) registered an MIC in [12] of 0.2 µg/mL. Besides, the half-inhibitory concentration (IC50) in assay [13] is 4 µg/mL (≈ 6.12 µM). For the compound `Cc1c(C(=O)NNC(=O)c2ccncc2)nn(-c2ccc(Cl)cc2Cl)c1-c1ccccc1`, the Ratio in assay [14] came out at 4. In assay [15], this compound registered an MIC of 25 µg/mL (≈ 53.6 µM). `COc1nc2ccccc2cc1C1C(Cl)C(=O)N1NC(=O)c1ccncc1` (centres undefined): in [12], the MIC was 3.12 to 6.25 µg/mL.

In assay [16], `CCC(CO)Nc1nc(Cl)nc(NNC(=O)c2ccncc2)n1` (centres undefined) registered an MIC of 20 µg/mL (≈ 59.2 µM). Take `C[C@]12CC/C(=N\NC(=O)c3ccncc3)C[C@@H]1CC[C@@H]1[C@@H]2CC[C@]2(C)/C(=N/NC(=O)c3ccncc3)CC[C@@H]12`: in [17], the “inhibition (INH)” value was above 95%.

`CCCCCCCCc1ccc(NC(=O)NNC(=O)c2ccncc2)cc1`: the MIC (in [18]; with Mycobacterium avium) was 1 to 2 µM (≈ 0.368 to 0.737 µg/mL) each time. The compound `C[C@]12CC[C@H]3[C@@](CC[C@@H]4[C@]3(C)CCC[C@@]4(C)C(=O)O)(CC1=O)C2` registered an MIC in assay [19] of 50 µg/mL (≈ 157 µM). In turn, `COc1ccc(C2C(Cl)C(=O)N2NC(=O)c2ccncc2)cc1` (centres undefined) returned an MIC in [11] of 0.31 to 5 µg/mL (≈ 0.934 to 15.1 µM). For `C=CCN1C(=O)/C(=N\NC(=O)c2ccncc2)c2ccccc21`, the MIC in [20] and in [21] was 2.7 to 3.5 µg/mL (≈ 8.81 to 11.4 µM) throughout. Compound `C=C1C[C@]23CC[C@@H]4[C@](C)(CCC[C@@]4(C)C(=O)NNc4ccncc4)[C@H]2CC[C@]1(O[C@@H]1O[C@H](COC(C)=O)[C@@H](OC(C)=O)[C@H](OC(C)=O)[C@H]1O[C@@H]1O[C@H](COC(C)=O)[C@@H](OC(C)=O)[C@H](OC(C)=O)[C@H]1O)C3` displayed an MIC in assay [19] of 5 µg/mL (≈ 5.07 µM). `COc1nc2ccc(Br)cc2cc1C1C(Cl)C(=O)N1NC(=O)c1ccncc1` (centres undefined) yielded an MIC in assay [12] of 3.12 to 6.25 µg/mL. As to `O=C(NN1C(=O)C(Cl)C1c1ccco1)c1ccncc1` (centres undefined), in assay [11], the MIC is 1.25 µg/mL (≈ 4.29 µM). Compound `O=C(NN1C(=O)C(Cl)C1c1cc2cc(Cl)ccc2nc1Cl)c1ccncc1` (centres undefined) displayed an MIC in assay [12] of 12.5 µg/mL. In assay [12], `O=C(CNNC(=O)c1ccncc1)COc1ccc(/C=C2\SC(=O)NC2=O)cc1` displayed an MIC of 50 to 100 µg/mL.

The compound `C=C1C[C@]23CC[C@@H]4[C@](C)(CCC[C@@]4(C)C(=O)O[C@@H]4O[C@H](CO)[C@@H](O)[C@H](O)[C@H]4O)[C@H]2CC[C@]1(O[C@@H]1O[C@H](CO)[C@@H](O)[C@H](O)[C@H]1O[C@@H]1O[C@H](CO)[C@@H](O)[C@H](O)[C@H]1O)C3` registered an MIC in assay [19] of 7.5 µg/mL (≈ 9.32 µM).
